Experimental data published in patent publication US6852689B2, “Methods for administration of antibiotics” (priority 1998, dated 2005).
Values joined by “and” are separate entries in the source; they are usually repeats but may differ in a detail not shown here. Equal entries are not always repeated. Where two headings read alike, the source gives them in different places.

What was measured:
human patients = assay: Clinical study (Example 4): serum CPK and skeletal muscle effects in hospitalized adult subjects with gram-positive infections; assay type: in vivo
Experimental: In order to study whether an increased dosing interval would prevent transient skeletal muscle toxicity in patients, daptomycin was administered intravenously to hospitalized adult subjects with serious gram-positive bacteremia or with a variety of infections due to gram-positive bacteria that was resistant to vancomycin or who were otherwise refractory to, or contraindicated for, currently available therapy. The subjects were treated for a period of 7-21 days. Serum CPK levels were determined prior to first antibiotic treatment and every other day for the first seven days of treatment, and daily thereafter.

[1] = Study A: steady state plasma concentrations of daptomycin on day 18 by HPLC; conditions: dogs
Experimental: (§1) Skeletal muscle toxicity was measured in dogs by increases in CPK levels to above the normal range and by microscopic changes in skeletal tissue.
Steady state plasma concentrations of daptomycin on day 18 of dosing were determined by HPLC.

[2] = cited from earlier work
rats = conditions: rat, in vivo, iv, 75 mg/kg/day; cited from earlier work
[3] = human, in vivo
dogs [4] = assay: Study B: skeletal muscle toxicity (serum CPK, microscopic myopathy) after repeated intravenous dosing; assay type: in vivo, dog
Experimental: Serum CPK levels were determined as disclosed in Example 1. […] In contrast, CPK levels at 5 mg/kg q8h were elevated compared to 5 mg/kg q24h or saline controls.

[5] = tested on: human volunteers and patients; conditions: in vivo, cited from earlier work
gram-positive bacteria = conditions: cited from earlier work
dogs [6] = conditions: dog, in vivo, iv, 40 mg/kg/day; cited from earlier work
dogs [7] = assay: Study A: skeletal muscle toxicity (serum CPK, microscopic myopathy) after repeated intravenous dosing; conditions: for Diaphragm myofiber degeneration, sites affected/sites examined / Heart myofiber degeneration, sites affected/sites examined / Skeletal muscle myofiber degeneration, sites affected/sites examined / Skeletal muscle myofiber regeneration, sites affected/sites examined: iv 20 days
Experimental: as §1
Treated animals were sacrificed at approximately one dosing interval after the last dose and muscle tissue was microscopically examined for indications of myopathy.

[8] = Study B: steady state plasma concentrations of daptomycin on day 18 by HPLC
Experimental: In order to study the effects of threshold plasma concentration on skeletal muscle toxicity, dogs (4 male dogs/group) were administered dose regimens of saline q8h, daptomycin 5 mg/kg q24h (approximate NOELq24h) and daptomycin 5 mg/kg q8h intravenously for 20 days.
As in Example 1, steady state plasma concentrations of daptomycin on day 18 of dosing were determined by HPLC.

Question: With `CCCCCCCCCC(=O)N[C@@H](Cc1c[nH]c2ccccc12)C(=O)N[C@H](CC(N)=O)C(=O)N[C@@H](CC(=O)O)C(=O)N[C@@H]1C(=O)NCC(=O)N[C@@H](CCCN)C(=O)N[C@@H](CC(=O)O)C(=O)N[C@H](C)C(=O)N[C@@H](CC(=O)O)C(=O)NCC(=O)N[C@H](CO)C(=O)N[C@@H]([C@H](C)CC(=O)O)C(=O)N[C@@H](CC(=O)c2ccccc2N)C(=O)O[C@@H]1C` [daptomycin] as the compound, how does the “Muscular pain or weakness” value (human patients; human, in vivo) read?
Answer: None of the patients experienced any muscular pain or weakness

Question: What about the “Total Number of Patients with Presumed Drug-Related Adverse Skeletal Muscle Effects/Total Evaluated” value (human patients; iv 7-21 days, 4 mg/kg q24h) of the same compound?
Answer: 0/8

Question: What about the “Total Number of Patients with Presumed Drug-Related Adverse Skeletal Muscle Effects/Total Evaluated” value (human patients; iv 7-21 days, 6 mg/kg q24h, 6 mg/kg) of the same compound?
Answer: zero of nine and 0/9

Question: What about the “Total Number of Patients with Presumed Drug-Related Adverse Skeletal Muscle Effects/Total Evaluated” value (human patients; iv, 6 mg/kg followed by 3 mg/kg q12h) of the same compound?
Answer: 0/3

Question: And the Cmax ratio ([1]; 25 mg/kg q8h compared to 25 mg/kg q24h)?
Answer: 1.23 fold higher

Question: What about the AUC ratio ([1]; 25 mg/kg q8h compared to 75 mg/kg q24h) of the same compound?
Answer: 0.37 fold higher

Question: And the “Time with plasma concentration below 27 μg/mL before next dose” value ([1]; 75 mg/kg q24h)?
Answer: approximately 12 hours

Question: What about the Cmax ratio ([1]; 75 mg/kg q24h compared to 25 mg/kg q8h) of the same compound?
Answer: approximately 2.8 fold higher

Question: What about the Plasma protein binding [2] of the same compound?
Answer: high

Question: And the Skeletal muscle finding (rats)?
Answer: mild myopathy

Question: What about the “Predicted Cmax” value ([3]; 4 mg/kg) of the same compound?
Answer: 69.2 µg/mL

Question: What about the “Predicted Cmax” value ([3]; 6 mg/kg) of the same compound?
Answer: 86.8 µg/mL

Question: And the “Effect on heart muscle” value (dogs [4]; dog, in vivo)?
Answer: No degenerative effect

Question: What about the “Increases in CPK levels correlating with very minimal myofiber degeneration” value (dogs [4]; dog, in vivo) of the same compound?
Answer: zero- to four-fold

Question: What about the “Heart myofiber degeneration, sites affected/sites examined” value (dogs [4]; dog, in vivo, iv, 5 mg/kg) of the same compound?
Answer: 0/4

Question: And the NOEL (dogs [4]; dogs, q24h dosing interval)?
Answer: approximately 5 mg/kg

Question: And the Adverse effects ([5]; 3 mg/kg)?
Answer: occasional adverse effects

Question: And the “Patients with transient muscular weakness and pain” value ([5]; 4 mg/kg)?
Answer: two of five

Question: What about the “MIC of certain vancomycin-resistant strains relative to most vancomycin-susceptible strains” value (gram-positive bacteria) of the same compound?
Answer: two- to four-fold

Question: And the “MIC relative to that of vancomycin” value (gram-positive bacteria; susceptible strains, typical)?
Answer: 4 fold lower

Question: And the Skeletal muscle finding (dogs [6])?
Answer: mild myopathy

Question: And the “Increases in serum CPK correlating with minimal skeletal myofiber degeneration” value (dogs [7]; dog, in vivo)?
Answer: three- to 25

Question: And the “Microscopic effect on heart muscle” value (dogs [7]; dog, in vivo)?
Answer: No microscopic degenerative effect

Question: What about the “Time of CPK peak during treatment” value (dogs [7]; dog, in vivo) of the same compound?
Answer: approximately 1 week

Question: What about the “Increase in CPK levels” value (dogs [7]; dog, in vivo, 25 mg/kg) of the same compound?
Answer: greater than 10 fold

Question: What about the “Incidence of Microscopic Myopathy (sites with minimal degenerative changes/sites examined)” value (dogs [7]; dog, in vivo, iv, 75 mg/kg) of the same compound?
Answer: 8/28

Question: What about the “Peak CPK” value (dogs [7]; dog, in vivo, iv, 75 mg/kg) of the same compound?
Answer: 990 U/L

Question: And the “Increase in toxicity as measured by incidence of microscopic myopathy” value (dogs [7]; dogs, 25 mg/kg three times a day compared to once daily)?
Answer: 5 fold

Question: What about the “Diaphragm myofiber degeneration, sites affected/sites examined” value (dogs [7]; dogs, 25 mg/kg q8h) of the same compound?
Answer: 1/4

Question: And the “Heart myofiber degeneration, sites affected/sites examined” value (dogs [7]; dogs, 25 mg/kg q8h)?
Answer: 0/4

Question: And the “Skeletal muscle myofiber degeneration, sites affected/sites examined” value (dogs [7]; dogs, 25 mg/kg q8h)?
Answer: 14/24

Question: And the “Skeletal muscle myofiber regeneration, sites affected/sites examined” value (dogs [7]; dogs, 25 mg/kg q8h)?
Answer: 9/24

Question: And the “Diaphragm myofiber degeneration, sites affected/sites examined” value (dogs [7]; dogs, 25 mg/kg q24h)?
Answer: 0/4

Question: What about the “Heart myofiber degeneration, sites affected/sites examined” value (dogs [7]; dogs, 25 mg/kg q24h) of the same compound?
Answer: 0/4

Question: What about the “Skeletal muscle myofiber degeneration, sites affected/sites examined” value (dogs [7]; dogs, 25 mg/kg q24h) of the same compound?
Answer: 3/24

Question: What about the “Skeletal muscle myofiber regeneration, sites affected/sites examined” value (dogs [7]; dogs, 25 mg/kg q24h) of the same compound?
Answer: 2/24

Question: And the “Diaphragm myofiber degeneration, sites affected/sites examined” value (dogs [7]; dogs, 75 mg/kg q24h)?
Answer: 0/4

Question: And the “Heart myofiber degeneration, sites affected/sites examined” value (dogs [7]; dogs, 75 mg/kg q24h)?
Answer: 0/4

Question: And the “Skeletal muscle myofiber degeneration, sites affected/sites examined” value (dogs [7]; dogs, 75 mg/kg q24h)?
Answer: 8/24

Question: What about the “Skeletal muscle myofiber regeneration, sites affected/sites examined” value (dogs [7]; dogs, 75 mg/kg q24h) of the same compound?
Answer: 1/24

Question: What about the half-life ([8]; dog, in vivo) of the same compound?
Answer: 2.5 h

Question: What about the “Time below 10 μg/mL plasma concentration” value ([8]; dogs, 5 mg/kg q8h) of the same compound?
Answer: 6 h

Question: And the AUC ratio ([8]; dogs, 5 mg/kg q8h compared to 5 mg/kg q24h)?
Answer: 2.6 fold higher

Question: And the “Time below 10 μg/mL plasma concentration” value ([8]; dogs, 5 mg/kg q24h)?
Answer: 18 h
